Data on four compounds can be found in patent US10799479B2, “Self-emulsifying formulations of DIM-related indoles” (BioResponse, L.L.C., priority 2015, dated 2020).

The nature of series [1]: Dispersion test in USP dissolution bath (DLS Nicomp, polarized light microscopy). Format: physicochemical. On the procedure:
A dispersion test was performed on the miscible formulations in a USP dissolution bath. 830 μL of miscible mixture was introduced in 250 mL of purified water at 37° C. under agitation with a paddle at 100 rpm. Performance criteria were: ease of emulsification, homogeneity and fineness of the dispersion. The fineness of the dispersion was assayed by dynamic light scattering (DLS, Particle Sizing Systems Nicomp). Photomicrographs were obtained of crystals observed during light microscopic observation following 30 minutes of dispersion.
The dispersion of the formulation in 250 mL of water (equivalent to the FDA glass of water) was followed for observance of the precipitation of DIM after 30 minutes and was checked by polarized light microscopy. Study of Formulation “D” lead to the formation of a fine and turbid emulsion with a crystal formation showing particle size distribution of 283±66 nm (volume). […] The advantageous reduction in crystal size for Formulation N compared to Formulation D is attributed, at least in part, to a contribution from Peppermint Oil and low concentration of Polysorbate 80 (see FIG. 4, A, B, and C).

Series [2] is described as follows: Single dose human oral bioavailability study. It is filed as in vivo. To be noted: single oral dose 300 mg DIM, healthy individuals, mean. The method, then: In Part I of the Study, a treatment group was administered a 300 mg dose of DIM from BR-DIM or a 300 mg dose of DIM from crystalline DIM on the first study day, followed by crossover to the other DIM formulation on the second study day, at least 14 days following the first treatment. 3 subjects were given crystalline DIM, 4 subjects were given BR-DIM.
In Part II of the Study, five individuals, four of whom participated in Part I of the Study, were administered a 300 mg dose of DIM from DIM SMEDDS Formulation D. Testing of DIM SMEDDS formula D took place on one day with 5 subjects. The subjects were all healthy, adult volunteers, both male and female, not consuming DIM containing supplements and in a fasting state on study days. […]
The concentrations of DIM in human plasma samples were determined by a validated high-performance liquid chromatography with tandem mass spectrometry (LC-MS/MS) method. […] The analytes were monitored by a Waters Micromass triple quadrupole mass spectrometer (Milford, Mass., USA) using an electrospray probe in the positive ionization mode operating at a cone voltage of 23V for DIM and 13V for the internal standard zileuton. […] The transitions at 129.9>76.8 and 237.1>161.1 were monitored for DIM and zileuton, respectively. […] The lower limit of quantitation (LLOQ) was determined at 10 ng/mL for DIM in human plasma. […]

Series [3] in a line: DIM solubility in excipients (incremental addition, microscopic observation). Format: physicochemical. Conditions: olive oil or sunflower oil. On the procedure:
The first step in this development process was the testing of a variety of excipients chosen as potentially active in solubilizing DIM. […] The method involved weighing of approximately 2 grams of each of the liquid excipients into a small vial. Subsequently, a small amount of DIM was added and the mixture was shaken.
The method involved weighing of approximately 2 grams of each of the liquid excipients into a small vial. Subsequently, a small amount of DIM was added and the mixture was shaken. […] Continued testing of acceptable oil solvents for, e.g., nutritional supplement, self-emulsifying formulations using DIM as a representative DIM-related indole active ingredient included testing of the following oils: […]

A short description of series [4]: Shake-flask determination of maximum solubility of DIM. Format: physicochemical. To be noted: HPLC. The method, then: The solubility was determined as described by Lindenberg et al., 2004, Eur J Pharm Biopharm. 58(2):265-78. […] The vials were incubated at 37±0.5° C. while shaking on a “Polymax 1040” orbital shaker (Heidolph, Schwabach). The samples of the solutions were taken after 4 or 24 hours by pressing the Uniprep® plunger down, diluted as appropriate, and the concentration of DIM was analyzed by HPLC, as described below. The measurements were done in triplicate. The maximum concentration of DIM in aqueous media used in this study was 0.6 μg/ml. […]

The conditions of series [5]: source not stated; cited from earlier work.

As usually defined, the Cmax is the highest concentration seen after dosing. Regarding `c1ccc2c(Cc3c[nH]c4ccccc34)c[nH]c2c1` [Crystalline DIM, 3,3′-diindolylmethane], the “Particle Size Diameter after Dispersion in Water (nm)” value in series [1] (Malvern Mastersizer, DIM as supplied by BioResponse) was 3,010^1 nm. For the same compound, the “DIM Crystal Characteristics In Water Dispersion” value in series [1] (polarized light microscopy after 30 minutes) is on record as “Large”. Besides, the peak concentration (Cmax) in series [2] is 18.1 ng/mL.
Take `c1ccc2c(Cc3c[nH]c4ccccc34)c[nH]c2c1` [DIM, 3,3′-diindolylmethane]: the “ability to dissolve DIM” value in series [3] was “very low”. In series [4], the “concentration of DIM in Octanol” value is listed as 2,300 μg/ml.
Turning to `CC(C)=CCC/C(C)=C/CC/C(C)=C/CC/C(C)=C/CC1=C(C)C(=O)c2ccccc2C1=O` [menaquinone-4], the “Log P of 2nd API drug” value in series [5] is on record as 10-12.
On to Vitamin D, for which, in series [5], the “Log P of 2nd API drug” value is given as 7.5.
